Columns and labels:
[1] = Body weight and food intake in meal-fed rats, 16 day study (Example 19); format: in vivo, Charles River female rats; details: baseline
Experimental: Two month old Charles River female rats (Charles River Breeding Laboratories, Wilmington, Mass.) were individually housed in wire-bottomedcages in a temperature-regulated (22° C.) light-controlled room (12 hr light, 6 a.m. to 6 p.m. and 12 hr dark, 6 p.m. to 6 a.m.). […] (1) control, (2) (-)-threo-chlorocitric acid (1.0 mmoles/kg, 227 mg/kg) administered by oral intubation 30 min before the 3 hr meal, and (3) (-)-threo-chlorocitric acid (1.1 mmoles/kg, 250 mg/kg) as a dietary admixture for the 3 hr meal. Treatment was continued for 16 days. The amount of body weight gained and food consumed during the study were determined.

[2] = Total body fat in meal-fed rats, oral, 17 day study (Example 22); format: in vivo, Charles River female rats; details: Chow, 17 days
Experimental: Two month old Charles River female rats (Charles River Breeding Laboratories, Wilmington, Mass.) were individually housed in wire-bottomedcages in a temperature-regulated (22° C.) light-controlled room (12 hr light, 6 a.m. to 6 p.m. and 12 hr dark, 6 p.m. to 6 a.m.). […] On the 8th day, the animals were administered water or (-)-threo-chlorocitric acid at the indicated concentration by oral intubation 30 min before the 3 hr meal. Treatment was continued for 17 days. Food cups were weighed immediately after the meal. After 17 days of treatment, rats were killed by decapitation and blood was removed. […] C. Sullivan, et al, Am. J. Clinical Nutrition, 30 767 (1977). […] Total carcass and lipid data are expressed in grams and percentages of carcass weight.

[3] = Body weight and food intake in meal-fed rats, oral, 17 day study (Example 21); format: in vivo, Charles River female rats; details: for CBWG, cumulative body weight gain / CFC, cumulative food consumption / FBW, final body weight: 17 days; for IBW, initial body weight: baseline
Experimental: Two month old Charles River female rats (Charles River Breeding Laboratories, Wilmington, Mass.) were individually housed in wire-bottomedcages in a temperature-regulated (22° C.) light-controlled room (12 hr light, 6 a.m. to 6 p.m. and 12 hr dark, 6 p.m. to 6 a.m.). […] On the 8th day, the animals were administered water or (-)-threo-chlorocitric acid at the indicated concentration by oral intubation 30 min before the 3 hr meal. Treatment was continued for 17 days. Food cups were weighed immediately after the meal. The amount of body weight gained and food consumed during the period was determined.

[4] = Anorectic activity, acute, pyramiding dose and chronic studies (summary statements); format: in vivo, mammals; details: in words
[5] = Body composition of meal-fed rats, 16 day study (Example 20); format: in vivo, Charles River female rats; details: in words
Experimental: Two month old Charles River female rats (Charles River Breeding Laboratories, Wilmington, Mass.) were individually housed in wire-bottomedcages in a temperature-regulated (22° C.) light-controlled room (12 hr light, 6 a.m. to 6 p.m. and 12 hr dark, 6 p.m. to 6 a.m.). […] (1) control, (2) (-)-threo-chlorocitric acid (1.0 mmoles/kg, 227 mg/kg) administered by oral intubation 30 min before the 3 hr meal, and (3) (-)-threo-chlorocitric acid (1.1 mmoles/kg, 250 mg/kg as a dietary admixture for the 3 hr meal. Treatment was continued for 16 days. After 16 days of treatment, rats were killed by decapitation and blood was removed. […] C. Sullivan, et al, Am. J. Clinical Nutrition, 30 767 (1977). […] Total carcass lipid data are expressed in grams and percentages of carcass weight. An aliquot of saponified carcass extract was neutralized and total carcass nitrogen was determined using the Kjeldahl procedure described in "Hawks" Physiological Chemistry," B. L. Oser, ed., McGraw Book Co., New York, N.Y., 1965, page 1214. Carcass protein data are expressed in grams and percentages of carcass weight.

[6] = Anorectic activities of stereoisomers, 3-day food consumption and body weight gain (Example 16); format: in vivo, Charles River female rats; details: 1.32 mmoles/kg oral, 3 days
Experimental: Charles River female rats (Charles River Breeding Laboratories, Wilmington, Mass.), weighing 196 to 210 g, were individually housed in wire-bottomed cages in a temperature-regulated (22° C.) light-controlled room (12 hr light, 6 a.m. to 6 p.m. and 12 hr dark, 6 p.m. to 6 a.m.). Animals were fasted 48 hr, then meal-fed a 70% glucose diet from 8 to 11 a.m. Following 5 to 12 days alimentation on the meal-feeding regimen, rats were dosed with the appropriate compounds orally by intubation 1/2 hr before the 3 hr meal for 3 days. The total food consumption and body weight gained during the 3 day period were determined. The control group consisted of 16 rats, while the experimental group consists of 8 rats.

[7] = Effect on stomach emptying, [14C] glucose load (Example 25); format: in vivo, Rats; details: 0.33 mmoles/kg oral, 60 min after [14C] glucose load
Experimental: Rats were trained to consume a 3 hr 70% glucose meal from 8 a.m. to 11 a.m. daily. On the experimental day, compounds were administered orally by intubation 30 min before a [^14 C] glucose load was given also by intubation. […] Sixty minutes later the rats were killed by decapitation; blood and stomachs were collected on ice.
Data are expressed as follows: dpm×10^3 per ml of serum and dpm×10^3 per stomach.

[8] = Chow, 0.25 mmoles (57 mg)/kg oral
[9] = Chow, 0.50 mmoles (114 mg)/kg oral
[10] = Chow, 1.00 mmoles (227 mg)/kg oral

SMILES: O=C(O)C[C@@](O)(C(=O)O)[C@@H](Cl)C(=O)O [(-)-threo-Chlorocitric acid]
- IBW, initial body weight ([1]; dietary admixture 1.1 mmoles (250 mg)/kg/day): 192 ± 5 g
- IBW, initial body weight ([1]; oral intubation 1.0 mmoles (227 mg)/kg/day): 189 ± 3 g
- Carcass Lipid % carcass, % of control ([2]; 0.25 mmoles (57 mg)/kg oral): 99 % of control
- Carcass Lipid total, % of control ([2]; 0.25 mmoles (57 mg)/kg oral): 101 % of control
- Carcass Lipid, % carcass ([2]; 0.25 mmoles (57 mg)/kg oral): 4.56 ± 0.42 % carcass
- Carcass Lipid, total ([2]; 0.25 mmoles (57 mg)/kg oral): 9.64 ± 0.80 g
- Carcass Weight ([2]; 0.25 mmoles (57 mg)/kg oral): 213 ± 4 g
- Carcass Lipid % carcass, % of control ([2]; 0.50 mmoles (114 mg)/kg oral): 58 % of control
- Carcass Lipid total, % of control ([2]; 0.50 mmoles (114 mg)/kg oral): 50 % of control
- Carcass Lipid, % carcass ([2]; 0.50 mmoles (114 mg)/kg oral): 2.70 ± 0.17 % carcass
- Carcass Lipid, total ([2]; 0.50 mmoles (114 mg)/kg oral): 4.80 ± 0.48 g
- Carcass Weight ([2]; 0.50 mmoles (114 mg)/kg oral): 173 ± 4 g
- Carcass Lipid % carcass, % of control ([2]; 1.00 mmoles (227 mg)/kg oral): 52 % of control
- Carcass Lipid total, % of control ([2]; 1.00 mmoles (227 mg)/kg oral): 41 % of control
- Carcass Lipid, % carcass ([2]; 1.00 mmoles (227 mg)/kg oral): 2.40 ± 0.22 % carcass
- Carcass Lipid, total ([2]; 1.00 mmoles (227 mg)/kg oral): 3.92 ± 0.37 g
- Carcass Weight ([2]; 1.00 mmoles (227 mg)/kg oral): 163 ± 7 g
- CBWG, cumulative body weight gain [3, 8]: -1 ± 4 g
- CFC, cumulative food consumption [3, 8]: 186 ± 9 g
- FBW, final body weight [3, 8]: 213 ± 7 g
- IBW, initial body weight [3, 8]: 214 ± 7 g
- CBWG, cumulative body weight gain [3, 9]: -32 ± 6 g
- CFC, cumulative food consumption [3, 9]: 165 ± 9 g
- FBW, final body weight [3, 9]: 177 ± 6 g
- IBW, initial body weight [3, 9]: 209 ± 5 g
- CBWG, cumulative body weight gain [3, 10]: -30 ± 7 g
- CFC, cumulative food consumption [3, 10]: 130 ± 13 g
- FBW, final body weight [3, 10]: 176 ± 11 g
- IBW, initial body weight [3, 10]: 207 ± 3 g
- IBW, initial body weight ([3]; G-70 diet, 0.25 mmoles (57 mg)/kg oral): 198 ± 4 g
- IBW, initial body weight ([3]; G-70 diet, 0.50 mmoles (114 mg)/kg oral): 195 ± 4 g
- IBW, initial body weight ([3]; G-70 diet, 1.00 mmoles (227 mg)/kg oral): 198 ± 3 g
- activity in the acute meal-fed assay utilizing three diets and in pyramiding dose studies, reduction in food consumption [4]: significantly more active
- appetite suppression and reduction of body weight gain ([4]; short- and long-term chronic studies): suppressed appetite and reduced body weight gain in mammals more efficaciously than hydroxycitric acid or citric acid
- weight loss, carcass analysis [5]: weight loss was due to reduction in body lipids
- 3-Day Body Weight Gain, % of initial body weight [6]: -11.0 % of initial body weight
- 3-Day Food Consumption, % of control [6]: 37 % of control
- Serum, % of control [7]: 33 % of control
- Stomach Contents, % of control [7]: 312 % of control

— US4354039A, “Chlorocitric acids” (Hoffmann-La Roche Inc., priority 1981, dated 1982)
